Patent US12016959B2, “Sustained drug release sheet for treating nerve injury” (OSAKA UNIVERSITY, priority 2016, dated 2024)

Assays:
[1] = Concentration of vitamin B12 (drug) in blood, rat sciatic nerve crush injury model; format: in vivo; conditions: 6 weeks after surgery; mean±SEM
Description: The examination on the sheet that contained the present extract as a drug was carried out in the same manner.
Blood was collected in an amount of 1 mL from the left ventricle of a rat under anesthesia 6 weeks after the surgery. The collected blood was centrifuged at 800×g for 20 minutes to collect a supernatant. The measurement of a concentration of vitamin B12 in the blood was entrusted to BML, INC. (Tokyo).

[2] = system: rat sciatic nerve crush injury model; test: Electrophysiological evaluation (CMAP, TL, NCV), rat sciatic nerve crush injury model; format: in vivo; conditions: 6 weeks after surgery, mean±SEM
Description: (§1) All of animal experiments were went ahead with the approval of the Ethics Committee of the animal laboratory of Osaka University. Six-week-old male Wistar rats (body weights: about 200 g) were used. All of the surgeries were carried out while applying deep sedation with a mixed anesthetic drug composed of midazolam (2 mg/kg), butorphanol (2.5 mg/kg) and medetomidine (0.15 mg/kg). A left sciatic nerve was exposed under clean operations, and a crush injury was applied to a position 5 mm distal to a sciatic notch with a pair of forceps. The time of crushing was 10 seconds, the frequency of crushing operations was three times, and the intervals between the crushing operations was 10 seconds. The fascia and the skin were sutured together with 4-0 nylon. […] The systemic administration of methylcobalamin was performed by placing an osmotic minipump (Model 2ML2; Alzet, Cupertino, CA, USA) under the skin of the back. All of the surgeries were carried out by the same practitioner.
Each of the rats 3 or 6 weeks after the surgery was sedated with an anesthetic drug and was then placed on an operating table in a prone position. A left sciatic nerve and a left tibialis anterior muscle were exposed. Each of a compound muscle action potential (CMAP) and a terminal latency (TL) was measured while stimulating a proximal site of a sciatic nerve with a bipolar electrode. A nerve conduction velocity (NCV) was calculated from measurement values respectively obtained at a proximal site and a distal site to the sciatic nerve crush injury while stimulating the positions with a bipolar electrode. In the measurement and the evaluation, AD Instruments Power Lab 2/26, Stimulus isolator, and Bio Amp and Chart & Scope software (all manufactured by AD Instruments, Bel la Vista, NSW, Australis) were used.

[3] = system: rat sciatic nerve crush injury model; test: Histological evaluation (axons, MBP-positive axons), rat sciatic nerve crush injury model; format: in vivo; conditions: 6 weeks after surgery, mean±SEM
Description: as §1
Each of the rats 6 weeks after the surgery was sedated with an anesthetic drug, and a left sciatic nerve was collected therefrom and then fixed with 4% PFA for 5 days and with 20% sucrose for 24 hours and then frozen and embedded. […] The total number of axons and the ratio of myelinated axons (total number of MBP-positive axons)/(total number of axons) were evaluated.

[4] = system: neurons; conditions: Non-Patent Document 2; cited from earlier work
[5] = system: rat sciatic nerve crush injury model; test: Sensory function, von Frey filament test, rat sciatic nerve crush injury model; format: in vivo; conditions: 6 weeks after surgery; untreated group 117.8±11.7 g; mean±SEM
Description: as §1, with “All of the surgeries were carried out by the same practitioner.” left out
For the evaluation of a sensory function, a mechanical hind paw withdrawal threshold was measured 6 weeks after the surgery using a von Frey filament (0.008 to 26 g; Touch Test, North Coast Medical Inc, Gilroy, CA, USA). Each of the rats was made walk on a metallic mesh, then a pressure was applied onto the center of the sole until the filament began to bend, and then a value at which the rat evoked an escape behavior was recorded.

[6] = system: Erk1/2 and Akt; conditions: through the methylation cycle; Non-Patent Document 2; cited from earlier work
[7] = system: rat sciatic nerve injury model; conditions: continuous high-dose administration; Non-Patent Document 2; cited from earlier work
[8] = system: rat sciatic nerve crush injury model; test: Motor function, sciatic function index (SFI), rat sciatic nerve crush injury model; format: in vivo; conditions: 6 weeks after surgery; 0 = normal, −100 = impaired; untreated group −20.6±4.2; mean±SEM
Description: as §1, with “All of the surgeries were carried out by the same practitioner.” left out
For the evaluation of a motor function, a sciatic function index (SFI) was measured 6 weeks after the surgery. For the measurement of an SFI, an ink was applied to the back paw of a rat, then the rat was allowed to walk on office paper placed on a 40 cm-square horizontal table, and then foot prints of the rat were recorded. The four items mentioned below were measured to calculate an SFI. […] An SFI value was calculated in accordance with the following mathematical formula. […]

In the case of `C/C1=C2/[N-][C@H]([C@H](CC(N)=O)[C@@]2(C)CCC(=O)NC[C@@H](C)OP(=O)([O-])O[C@H]2[C@@H](O)[C@@H](n3cnc4cc(C)c(C)cc43)O[C@@H]2CO)[C@]2(C)N=C(/C(C)=C3N=C(/C=C4N=C1[C@@H](CCC(N)=O)C\4(C)C)[C@@H](CCC(N)=O)[C@]\3(C)CC(N)=O)[C@@H](CCC(N)=O)[C@]2(C)CC(N)=O.[CH3-].[Co+3]` [MeCbl pump, methylcobalamin], the “concentration of vitamin B12 in the blood” value [1] was 18.35 ± 2.27 ng/mL, the “terminal latency (TL)” value ([2]; untreated group 3.45±0.08 ms) was 3.24 ± 0.07 ms and the “compound muscle action potential (CMAP)” value ([2]; untreated group 19.5±2.3 mV) was 19.5±1.5 mV. For the same compound, the “nerve conduction velocity (NCV)” value ([2]; untreated group 28.2±2.5 m/s) was 43.2±2.5 m/s, the “ratio of myelinated axons (number of MBP-positive axons)/(total number of axons)” value ([3]; untreated group 85.0±0.9%) was 91.5±0.6% and the “number of regenerated axons per sq. mm” value ([3]; untreated group 2843±68/mm^2) was 2735±77 /mm^2. The “concentration that can promote the elongation of neurites and the survival of neurons” value [4] was at least 100 nM, the “von Frey filament test, mechanical hind paw withdrawal threshold” value [5] was 77.8 ± 7.0 g and the “activities of Erk1/2 and Akt” value [6] was “increase the activities of Erk1/2 and Akt”. For the same compound, the “nerve regeneration and function recovery” value [7] was “improves nerve regeneration and function recovery” and the “sciatic function index (SFI)” value [8] was −10.5±2.0.
